Results from US20220268782A1, “METHODS FOR PREDICTING AND TREATING CARDIAC DYSFUNCTION” (INSERM (INSTITUT NATIONAL DE LA SANTÉ EAT DE LA RECHERCHE …, priority 2019, published 2022).

Tests used:
C2C12 myoblasts = assay: PA-induced senescence in C2C12 myoblasts (immunoblot of senescence markers, EdU incorporation); assay type: cell-based; conditions: C2C12 cells
Method: (§1) Cells were washed briefly with ice-cold 1×PBS, scraped in 400 μL T-PER lysis buffer (ThermoFisher) supplemented with 0.1 mM phenylmethylsulphonyl fluoride (PMSF) and protease/phosphatase inhibitor cocktail tablet (ThermoFisher). Pulverised tissue samples (20-30 mg) were lysed in the same buffer accelerated by sonication and passing through a 21 G needle. To pellet any debris, lysates were centrifuged at 10,000 g for 10 minutes at 4° C., with the supernatant transferred to fresh tubes. Protein concentrations were determined with Bradford assay (Biorad) and lysates were diluted to equal concentration with lysis buffer. Protein lysates were then mixed with Laemmli buffer, vortexed and heated to 95° C. for 5 min. Equal amounts of protein lysates in parallel with protein molecular weight marker (ThermoFisher) were loaded onto pre-cast polyacrylamide gels (Nupage 10 or 12% Bis Tris gel, Novex, Invitrogen) and separated by electrophoresis at 200V for 1 hour. Proteins were transferred onto polyvinylidene difluoride (PVDF) membrane (Invitrogen) using an electrophoretic transfer cell (Mini Trans-Blot, Bio-Rad) in ice-cold transfer buffer (48 mM Tris base, […], 0.1% SDS, 20% methanol (v/v)) at 300 mA for 2 hours. Membranes were blocked in 1× skimmed milk (ThermoFisher) for 1 hour at room temperature, followed by overnight incubation with primary antibody diluted in blocking buffer at 4° C. Next day membranes were washed, followed by 60 minutes incubation in the corresponding horseradish peroxidase (HRP)-conjugated secondary antibody diluted 1:2000-10000 in blocking buffer (all Abcam). Blots were developed using enhanced chemiluminescence (ECL) reagents (normal, Prime & Select) and digital images were acquired using an imaging system (Azure Biosystems). Membranes were usually stripped of antibodies and reprobed with an antibody targeting a protein serving as loading control (α-actinin for hearts & β-actin for all others). For this procedure, membranes were placed in Guanidine-HCl-based stripping solution (6M Guanidine-HCl, 0.2% Nonidet P-40, 0.1M β-mercaptoethanol, 20 mM Tris-HCl, pH 7.5 and 100 mM 2-mercaptoethanol) and incubated for 10 minutes at room temperature with gentle agitation, followed by extensive washing and re-blocking.^5
C2C12 (ATCC® CRL-1772™) myoblasts maintained in DMEM supplemented with L-glutamine (2 mM), penicillin/streptomycin (1%) and 5% fetal bovine serum (FBS) were seeded either at a density of 5×10^4 cells (<50%) per well in 24-well plates or 10^4 cells in 4-well chamber slides. Cells were with L-phenylalanine (1-10 mM)+BH4 (10 μM) and incubation with increasing concentrations of N-acetylcysteine (0.5, 2.5, 5 mM) vs. vehicle overnight as indicated. Cells were analysed for oxidative stress with MitoSOX™ (mitochondrial superoxide; 5 μM, ThermoFisher Scientific), CellROX™ (cytosolic superoxide; 5 μM, ThermoFisher Scientific), gene or protein expression, or various metabolites (see below).

AML-12 hepatocytes = assay: AML-12 hepatocytes: p21, Pah immunoblot and tyrosine production; assay type: cell-based
Method: as §1
AML12 cells (ATCC® CRL-2254™) were maintained in DMEM/F-12 (1:1) culture media supplemented with 10% FBS, 10 μg/ml insulin, 5.5 μg/ml transferrin, 5 ng/ml selenium, 40 ng/ml dexamethasone and 1% penicillin/streptomycin. Cells were sub-cultivated from subconfluent flasks with a ratio from 1:4 to 1:8. For WB analysis, cells were plated on 6-well plates and harvested at 80-90% of confluence. AML12 cells were transfected with indicated siRNA (Table 2) at 80% confluence using Lipofectamine RNAiMAX Transfection Reagent (ThermoFischer Scientific 13778030) following the manufacturer's instructions. Transfection efficiency was constantly checked using BLOCK-IT Alexa Fluor Red Fluorescent Control (ThermoFischer Scientific 14750100).
Levels of reduced glutathione (GSH; ThermoFisher), phenylalanine (BioVision) and tyrosine (BioVision) were determined from cells or plasma, with respective agents/kits following the manufacturer's recommendations. Specifically, GSH levels were estimated with the aid of ThiolTracker™ Violet fluorescent probe (ThermoFisher). Plasma and liver phenylalanine levels were determined using an enzyme-coupled, fluorometric method (BioVision). Briefly, samples were deproteinized via trichloroacetate precipitation, neutralised, tyrosinase-treated (to remove tyrosine that may interfere) and diluted to fit in the standard curve. Fluorescence reading took place at 587 nm after excitation at 535 nm. Levels of tyrosine in cells or conditioned media were determined after deproteinization using 10 kDa cut-off columns with an enzyme-coupled, colorimetric method with reading at 491 nm (BioVision).

| SMILES | PA-dependent senescence (p21 protein, EdU incorporation) (C2C12 myoblasts; PA 5 mM + BH4 10 μM, FIG. 1c-d) | Pah levels under Nutlin3a-induced senescence (AML-12 hepatocytes; Nutlin3a plus co-treatment, FIG. 4o, 4r) | tyrosine production / levels under Nutlin3a-induced senescence (AML-12 hepatocytes; Nutlin3a plus co-treatment, FIG. 4p, 4q) | other markers of senescence (Cdkn2a=p16 and phospho-p53=p-p53) (C2C12 myoblasts; PA 5 mM vs. vehicle, FIG. 1a) | cyclin-dependent kinase 1a (Cdkn1a=p21) protein (C2C12 myoblasts; PA 5 mM vs. vehicle, FIG. 1a-b) | EdU incorporation (C2C12 myoblasts; PA treatment, FIG. 1d) | p21 protein (AML-12 hepatocytes; increasing concentrations of PA (0-10 mM), FIG. 4n) |
| --- | --- | --- | --- | --- | --- | --- | --- |
| CC(O)C(O)C1CNc2nc(N)[nH]c(=O)c2N1 (stereo not shown) [BH4, 2-amino-6-(1,2-dihydroxypropyl)-5,6,7,8-tetrahydro-3H-pteridin-4-one] | antagonised | derepressed | derepressed |  |  |  |  |
| N[C@@H](Cc1ccccc1)C(=O)O [PA, (S)-2-Amino-3-phenylpropanoic acid] |  |  |  | remained unaltered | selectively induced | suppressed | dose-dependent induction |
